Read-outs that look alike come from different tables or passages of the source.
Tests used:
[1] = test system: rings of the thoracic region of the aorta (aortic smooth muscles); assay: Potassium channel opener activity: in vitro relaxant power on rings of the thoracic region of the aorta contracted with KCl; type: cell-based; settings: for IC50: read-out: Inhibition contraction isolated aorta induced by K+: IC50; for mixed activity (potassium channel opener/antiandrogen): conclusion from Tables I and II
Description: Measurement of the Activity of "Potassium Channel Opener" Type of the Ethyl Ester of (4-Cyano-3-(trifluoromethyl)phenyl)(3,3,3-trifluoro-2-hydroxy-2-methylpropionyl)carbamic Acid (Example 1) and of (4-cyano-3-(trifluoromethyl)phenyl)(3,3,3-trifluoro-2-hydroxy-2-methylpropionyl)carbamic Acid (Example 2) by the in Vitro Measurement of the Relaxant Power of the Molecules on Rings of the Thoracic Region of the Aorta (IC50):
The experiments were carried out according to the techniques of Newgreen et al. (Br. J. Pharmacol., 100, p. 605-613 (1990)), Bray et al. (Arch. Pharmacol., 344, p. 351-359 (1991)) and Wickerden et al. (Br. J. Pharmacol., 103, 1148-1152 (1991)).
After they had been mounted into the isolated organ vessels, the tissues (aortic smooth muscles) were subjected to an initial tension of 2 g.
After an equilibration period, the tissues were exposed to a potassium chloride solution (20 mM KCl), in order to obtain a sustained contractile response.
After stabilization of this contractile response, the relaxant activity (of potassium channel opener type) of the test molecules was evaluated as a function of the concentration applied.
During the experimentation, two reference molecules were employed: cromakalim and minoxidil.

androgen receptor = biological target: T1, androgen receptor (Rattus norvegicus, UniProt P15207); assay: Affinity (IC50) for the androgen receptor: inhibition of the binding of testosterone (Schilling and Liao technique)
T1 sequence (P15207 1-902): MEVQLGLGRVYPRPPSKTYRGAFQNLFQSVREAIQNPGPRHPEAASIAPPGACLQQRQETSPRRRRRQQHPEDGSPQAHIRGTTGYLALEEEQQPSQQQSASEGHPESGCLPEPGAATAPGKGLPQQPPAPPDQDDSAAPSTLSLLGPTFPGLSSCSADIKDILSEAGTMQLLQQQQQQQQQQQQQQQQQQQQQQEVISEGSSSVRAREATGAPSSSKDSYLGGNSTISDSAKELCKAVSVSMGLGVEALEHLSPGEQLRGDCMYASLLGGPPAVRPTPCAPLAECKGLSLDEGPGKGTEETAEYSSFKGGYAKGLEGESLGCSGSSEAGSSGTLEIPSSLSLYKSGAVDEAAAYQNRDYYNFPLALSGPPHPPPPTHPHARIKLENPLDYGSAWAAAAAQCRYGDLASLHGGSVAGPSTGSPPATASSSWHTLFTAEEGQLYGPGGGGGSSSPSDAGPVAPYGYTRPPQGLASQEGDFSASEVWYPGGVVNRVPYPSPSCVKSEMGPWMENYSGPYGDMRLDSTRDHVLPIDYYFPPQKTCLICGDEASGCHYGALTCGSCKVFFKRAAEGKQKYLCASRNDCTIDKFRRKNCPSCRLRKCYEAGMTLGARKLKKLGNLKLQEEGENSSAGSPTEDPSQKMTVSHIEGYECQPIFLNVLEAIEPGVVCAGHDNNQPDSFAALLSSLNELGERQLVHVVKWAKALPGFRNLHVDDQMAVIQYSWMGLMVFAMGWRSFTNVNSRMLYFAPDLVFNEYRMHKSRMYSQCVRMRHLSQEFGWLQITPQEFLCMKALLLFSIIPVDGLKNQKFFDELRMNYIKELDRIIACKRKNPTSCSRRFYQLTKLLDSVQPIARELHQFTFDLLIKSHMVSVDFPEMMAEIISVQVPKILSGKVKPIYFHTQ
Description: Measurement of the Affinity (IC50) of the Ethyl Ester of (4-Cyano-3-(trifluoromethyl)phenyl)(3,3,3-trifluoro-2-hydroxy-2-methylpropionyl)carbamic Acid (Example 1) and of (4-Cyano-3-(trifluoromethyl)phenyl)(3,3,3-trifluoro-2-hydroxy-2-methylpropionyl)carbamic Acid (Example 2) for the Androgen Receptor:
These measurements of receptor affinity for the androgen receptor were carried out according to the technique of Schilling and Liao, described in The Prostate, 5, p. 581-588 (1984).
During the experimentation, the reference molecule (mibolerone) was tested in parallel at 8 concentrations, in order to validate the experiment.

[2] = 20 mM KCl, thoracic aorta rings, initial tension 2 g

IC50 [1, 2] [µM] | Compound | IC50 (androgen receptor) [µM] | mixed activity (potassium channel opener/antiandrogen) [1] | IC50 [1] [µM]
~1 | CC1(C)Oc2ccc(C#N)cc2C(N2CCCC2=O)C1O (centres unmarked) [cromakalim, reference compound] | – | – | –
– | CCOC(=O)N(C(=O)C(C)(O)C(F)(F)F)c1ccc(C#N)c(C(F)(F)F)c1 (centres unmarked) [Example 1, Ethyl Ester of (4-Cyano-3-(trifluoromethyl)phenyl)(3,3,3-trifluoro-2-hydroxy-2-methylpropionyl)carbamic Acid] | 2 | mixed activity | 2
~1 | Nc1cc(N2CCCCC2)nc(N)[n+]1[O-] [minoxidil, 2,4-diamino-6-piperidinopyrimidine 3-oxide, reference compound] | – | – | –
– | CC(O)(C(=O)N(C(=O)O)c1ccc(C#N)c(C(F)(F)F)c1)C(F)(F)F (centres unmarked) [Example 2, (4-Cyano-3-(trifluoromethyl)phenyl)(3,3,3-trifluoro-2-hydroxy-2-methylpropionyl)carbamic Acid] | 4 | mixed activity | 3

— patent publication US6156899A, “N-aryl-2-hydroxyalkylamido compositions for inducing/stimulating hair growth and/or retarding hair loss and/or for treating hyperseborrhea and/or acne” (Societe L'Oreal S.A., priority 1997, dated 2000)
